According to ChEMBL document CHEMBL1131989 (Bioorg Med Chem Lett, 1999):

How the values were obtained:
Mus musculus = species on record: Mus musculus; test: Concentration of compound required for evaluating efficacy in mouse vas deferens (MVD); type: functional, organism-based
[1] = target: Delta-type opioid receptor (Homo sapiens, UniProt P41143); test: In vitro binding affinity towards Opioid receptor delta 1 was determined using […]
Cavia porcellus = species on record: Cavia porcellus; test: Concentration of compound required for evaluating efficacy in guinea pig ileum (GPI); type: functional, organism-based
Mu-type opioid receptor = Mu-type opioid receptor (Homo sapiens, UniProt P35372); test: In vitro binding affinity towards mu opioid receptors was determined using [3H][p-Cl-Phe]- 4] DPDPE or [3H]deltorphin II
Sequence of Mu-type opioid receptor (P35372 whole entry): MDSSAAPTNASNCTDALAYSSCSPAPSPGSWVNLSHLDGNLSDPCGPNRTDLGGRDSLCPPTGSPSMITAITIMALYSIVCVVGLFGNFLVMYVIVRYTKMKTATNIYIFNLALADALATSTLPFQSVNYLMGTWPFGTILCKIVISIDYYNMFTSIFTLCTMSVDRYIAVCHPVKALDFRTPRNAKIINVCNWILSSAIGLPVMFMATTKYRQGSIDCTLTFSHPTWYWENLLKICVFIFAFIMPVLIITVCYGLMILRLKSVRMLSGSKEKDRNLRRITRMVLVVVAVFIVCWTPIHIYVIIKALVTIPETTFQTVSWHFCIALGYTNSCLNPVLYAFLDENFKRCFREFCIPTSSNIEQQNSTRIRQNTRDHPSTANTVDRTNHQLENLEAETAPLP

Sequence of Delta-type opioid receptor (P41143 whole entry): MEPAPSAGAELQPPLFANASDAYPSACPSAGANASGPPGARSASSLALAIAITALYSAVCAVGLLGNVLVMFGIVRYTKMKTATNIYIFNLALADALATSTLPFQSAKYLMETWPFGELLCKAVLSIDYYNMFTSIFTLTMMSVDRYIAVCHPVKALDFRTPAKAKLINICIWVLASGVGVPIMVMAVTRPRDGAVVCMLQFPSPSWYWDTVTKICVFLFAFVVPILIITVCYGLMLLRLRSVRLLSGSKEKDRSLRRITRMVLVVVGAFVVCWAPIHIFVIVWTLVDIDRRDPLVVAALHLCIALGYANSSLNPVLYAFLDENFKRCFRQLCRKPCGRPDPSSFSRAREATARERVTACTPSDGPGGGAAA

Row | Compound | EC50 (Mus musculus) [nM] | IC50 [1] [nM] | EC50 (Cavia porcellus) [nM] | IC50 (Mu-type opioid receptor) [nM]
1 | CCCC[C@H](N)C(=O)NNC(=O)[C@H](Cc1ccccc1)NC(=O)CNC(=O)[C@@H](C)NC(=O)[C@@H](N)Cc1ccc(O)cc1 | 20 | 21 | 24 | 1.3
2 | C[C@@H](NC(=O)[C@@H](N)Cc1ccc(O)cc1)C(=O)NCC(=O)N[C@@H](Cc1c[nH]c2ccccc12)C(=O)NNC(=O)[C@H](N)Cc1ccccc1 | 130 | 46 | 26 | 8.3
3 | C[C@@H](NC(=O)[C@@H](N)Cc1ccc(O)cc1)C(=O)NCC(=O)N[C@@H](Cc1ccccc1)C(=O)NNC(=O)[C@@H](N)Cc1ccccc1 | 32 | 30 | 9.8 | 0.88
4 | CCCC[C@@H](N)C(=O)NNC(=O)[C@H](Cc1ccccc1)NC(=O)CNC(=O)[C@@H](C)NC(=O)[C@@H](N)Cc1ccc(O)cc1 | 95 | 71 | 5.2 | 5.9
5 | C[C@@H](NC(=O)[C@@H](N)Cc1ccc(O)cc1)C(=O)NCC(=O)N[C@@H](Cc1ccccc1)C(=O)NNC(=O)[C@H](N)Cc1ccccc1 | 27 | 15 | 2.4 | 0.74
6 | C[C@@H](NC(=O)[C@@H](N)Cc1ccc(O)cc1)C(=O)NCC(=O)N[C@@H](Cc1ccccc1)C(=O)NNC(=O)[C@H](N)Cc1c[nH]c2ccccc12 | 15 | 29 | 7.1 | 2
7 | C[C@@H](NC(=O)[C@@H](N)Cc1ccc(O)cc1)C(=O)NCC(=O)N[C@@H](Cc1ccccc1)C(=O)NN | 290 | 230 | 90 | 4.7
8 | C[C@@H](NC(=O)[C@@H](N)Cc1ccc(O)cc1)C(=O)NCC(=O)N[C@@H](Cc1ccccc1)C(=O)NNC(=O)[C@H](Cc1ccccc1)NC(=O)CNC(=O)[C@@H](C)NC(=O)[C@@H](N)Cc1ccc(O)cc1 [BIPHALIN] | 27 |  | 8.8 | 1.4
9 | C[C@@H](NC(=O)[C@@H](N)Cc1ccc(O)cc1)C(=O)NCC(=O)N[C@@H](Cc1ccccc1)C(=O)NNC(=O)[C@H](N)Cc1ccc(O)cc1 | 45 | 16 | 15 | 1.6
